The source of these data is PubChem BioAssay AID2060361 (Molecular Pharmacology Branch, DTP, NCI, 2025).

Where “and” joins values, the source holds several entries; their conditions need not be identical. Identical values can stand only once. Bounds are passed on as bounds.

For the assay, the system named is 463943-066-T-J2-PDC tumor spheroids with HUVEC/MSC, viability. Put plainly: Anticancer human tumor 463943-066-T-J2-PDC patient-derived colon adenocarcinoma cell line growth inhibition [TAK]. As to conditions: for viability, T/C: stronger effect = lower value. An excerpt:
Combinatorial screen of targeted agents with TAK-243 and ipatasertib in multi-cell type tumor spheroids
A high-throughput screen of multi-cell type tumor spheroids was designed to identify active combinations of targeted small molecules and TAK-243 or ipatasertib. Complex spheroids include a stromal component modeled by human endothelial cells (HUVEC) and fibroblasts modeled by human mesenchymal stem cells (MSCs). The concentration ranges selected for each drug and investigational agent were based upon clinically achievable concentrations if the clinical Cmax of the agent was known.
Compounds. The drugs and investigational agents: TAK-243 (785004), ipatasertib (767898), everolimus (733504), selumetinib (741078), bortezomib (756655), trametinib (758246), ixazomib (758254), vemurafenib (761431), dabrafenib (764134), sapanisertib (764658), alpelisib (765974), and copanlisib (816437), were obtained from the National Cancer Institute (NCI) Developmental Therapeutics Program Chemical Repository. The FDA-approved anticancer drug set is available from the NCI Developmental Therapeutics Program. […] The stock solutions were prepared in dimethyl sulfoxide (DMSO, Sigma-Aldrich, St. Louis, MO, cat. D2650) at 800-fold the tested concentration and stored at -70 degrees C prior to their use. All drugs and investigational agents were tested over a range starting from a high concentration at or near the clinical Cmax and decreasing in half-log increments. If the clinical Cmax for an agent had not been determined, the highest concentration tested was 10 microM.
NCI60 Cell Culture. NCI60 cell lines were obtained from the NCI Developmental Therapeutics Program Tumor Repository. For each lot of cells, the Repository performed Applied Biosystems AmpFLSTR Identifiler testing with PCR amplification to confirm consistency with the published Identifier STR profile for each cell line. Cells were kept in continuous culture for no more than 20 passages. The optimal seeding densities for each of the cell lines at each time point assessed were determined prior to performing the concentration response studies. Briefly, the NCI60 human tumor lines were grown as monolayers in RPMI 1640 medium supplemented with 10% FBS and 2 mmol/L L-glutamine.
An additional 2 lines were from the NCI60 cell line panel including melanomas, MALME-3M and SK-MEL-2. Pooled donor human umbilical vein endothelial cells (HUVEC, Lonza, cat. CC-2519) and human mesenchymal stem cells (hMSC, Lonza, cat. PT-2501) were purchased from Lonza (Walkersville, MD).
PDMR cell lines were grown in complete medium (DC medium): Dulbecco's modified Eagle's medium (DMEM)/F12 supplemented with 5% fetal bovine serum (FBS), 2 mM L-glutamine, 100 U/mL penicillin and 100 µg/ml streptomycin, 0.4 µg/ml hydrocortisone, 10 ng/ml epidermal growth factor (EGF) recombinant human protein, 24 µg/mL adenine, and 0.1 mg/mL primocin. During culture from frozen stock vials, PDMR cells were cultured in the same medium containing 10 µM Y-27632 (see Table 3). The PDCs were cultured in complete DMEM/F12 media without 10 microM Y-27632 dihydrochloride for at least two passages prior to the screen. The pooled donor HUVEC and hMSC were cultured in endothelial cell growth medium 2 (PromoCell, Heidelberg, Germany, cat. C-22011) and mesenchymal stem cell growth medium 2 (PromoCell, cat. C-28009), respectively. For all experiments, HUVEC and hMSC were used at passages </=5.
For the pre-screen, cell seeding densities were determined from a titration spanning the range from 5,000 to 313 cells per well. The mct-spheroids including 60% malignant cells, 25% HUVEC and 15% MSC dispensed as a mixture into U-bottom Ultra-Low Attachment 384-well plates (Corning, NY)
High-throughput Drug Combination Screening.
Prior to their inoculation into 384-well plates, malignant cells, HUVEC, and hMSC were removed from T flasks using TrypLE express (Thermo Fisher Scientific, cat. 12605036) and harvested by centrifugation for 5 min at 233 x g. […]

Setting [1] is: curve of first compound, second compound 0.3 µM.
Setting [2] is: curve of first compound, second compound 0.949 µM.
[3] abbreviates: curve of first compound, second compound 3 µM.
The mark [4] stands for this setting: curve of first compound, second compound 9.49 µM.
The mark [5] stands for this setting: curve of first compound, second compound 30 µM.
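Note: spheroids exposed to drugs for seven days.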

As to `CC(C)CC(NC(=O)C(Cc1ccccc1)NC(=O)c1cnccn1)B(O)O` (centres undefined) + CC(C)NCC(C(=O)N1CCN(c2ncnc3c2C(C)CC3O)CC1)c1ccc(Cl)cc1, the IC50 – broadly, the concentration needed to halve the response being measured – under setting [1] is more than 0.01 µM; the IC50 under setting [2] was more than 0.01 µM; the IC50 under setting [3] is more than 0.01 µM; the half-inhibitory concentration (IC50) under setting [4] was more than 0.01 µM; the IC50 under setting [5] was more than 0.01 µM. For the same molecule, the viability, T/C (as a rule, the ratio of treated to control) (second compound 0.3 µM, first compound 31.6 pM) was 98.3%; the viability, T/C (second compound 0.3 µM, first compound 0.0001 µM) is 99.2%; the viability, T/C (second compound 0.3 µM, first compound 0.000316 µM) is 92.3%; the viability, T/C (second compound 0.3 µM, first compound 0.001 µM) is 91.4%; the viability, T/C (second compound 0.3 µM, first compound 0.00316 µM) was 93.1%; the viability, T/C (second compound 0.3 µM, first compound 0.01 µM) was 84.1%. Moreover, the viability, T/C (second compound 0.949 µM, first compound 31.6 pM) was 89.1%; the viability, T/C (second compound 0.949 µM, first compound 0.0001 µM) is 81.8%; the viability, T/C (second compound 0.949 µM, first compound 0.000316 µM) is 89.4%; the viability, T/C (second compound 0.949 µM, first compound 0.001 µM) is 84.3%; the viability, T/C (second compound 0.949 µM, first compound 0.00316 µM) was 85.2%; the viability, T/C (second compound 0.949 µM, first compound 0.01 µM) was 77.3%. For the same molecule, the viability, T/C is, setting by setting: (second compound 3 µM, first compound 31.6 pM) 90.5%; (second compound 3 µM, first compound 0.0001 µM) 96%; (second compound 3 µM, first compound 0.000316 µM) 97.3%; (second compound 3 µM, first compound 0.001 µM) 94.4%; (second compound 3 µM, first compound 0.00316 µM) 78.5%; (second compound 3 µM, first compound 0.01 µM) 81.8%. The viability, T/C is, setting by setting: (second compound 9.49 µM, first compound 31.6 pM) 85.4%; (second compound 9.49 µM, first compound 0.0001 µM) 95.5%; (second compound 9.49 µM, first compound 0.000316 µM) 82.7%; (second compound 9.49 µM, first compound 0.001 µM) 88.9%; (second compound 9.49 µM, first compound 0.00316 µM) 82.7%; (second compound 9.49 µM, first compound 0.01 µM) 77%. The viability, T/C is, setting by setting: (second compound 30 µM, first compound 31.6 pM) 88.2%; (second compound 30 µM, first compound 0.0001 µM) 85.3%; (second compound 30 µM, first compound 0.000316 µM) 91.4%; (second compound 30 µM, first compound 0.001 µM) 88.2%; (second compound 30 µM, first compound 0.00316 µM) 88.7%; (second compound 30 µM, first compound 0.01 µM) 70.2%.

Regarding `CCCS(=O)(=O)Nc1ccc(F)c(C(=O)c2c[nH]c3ncc(-c4ccc(Cl)cc4)cc23)c1F`, the viability, T/C by setting is: (compound 0.316 µM) 108% and 97.6%; (compound 1 µM) 107% and 112%; (compound 3.16 µM) 109% and 126%; (compound 10 µM) 95.6% and 103%; (compound 31.6 µM) 122% and 118%; (compound 100 µM) 122% and 124%. Also, where the note is “curve of compound”, the IC50 was more than 100 µM.

For `CC(C)(C)c1nc(-c2cccc(NS(=O)(=O)c3c(F)cccc3F)c2F)c(-c2ccnc(N)n2)s1` + CC(C)NCC(C(=O)N1CCN(c2ncnc3c2C(C)CC3O)CC1)c1ccc(Cl)cc1, the half-maximal inhibitory concentration (IC50) under setting [1] is more than 10 µM; the IC50 under setting [2] is more than 10 µM; the IC50 under setting [3] was more than 10 µM; the IC50 under setting [4] is more than 10 µM; the IC50 under setting [5] was more than 10 µM. Moreover, the viability, T/C was 110% (second compound 0.3 µM, first compound 0.0316 µM); 111% (second compound 0.3 µM, first compound 0.1 µM); 107% (second compound 0.3 µM, first compound 0.316 µM); 112% (second compound 0.3 µM, first compound 1 µM); 100% (second compound 0.3 µM, first compound 3.16 µM); 92.5% (second compound 0.3 µM, first compound 10 µM). The viability, T/C was 115% (second compound 0.949 µM, first compound 0.0316 µM); 111% (second compound 0.949 µM, first compound 0.1 µM); 105% (second compound 0.949 µM, first compound 0.316 µM); 111% (second compound 0.949 µM, first compound 1 µM); 103% (second compound 0.949 µM, first compound 3.16 µM); 88.3% (second compound 0.949 µM, first compound 10 µM). In addition, the viability, T/C (second compound 3 µM, first compound 0.0316 µM) was 99%; the viability, T/C (second compound 3 µM, first compound 0.1 µM) was 109%; the viability, T/C (second compound 3 µM, first compound 0.316 µM) was 92.2%; the viability, T/C (second compound 3 µM, first compound 1 µM) is 102%; the viability, T/C (second compound 3 µM, first compound 3.16 µM) was 110%; the viability, T/C (second compound 3 µM, first compound 10 µM) was 101%. For the same molecule, the viability, T/C reads like this: (second compound 9.49 µM, first compound 0.0316 µM) 100%; (second compound 9.49 µM, first compound 0.1 µM) 111%; (second compound 9.49 µM, first compound 0.316 µM) 99.2%; (second compound 9.49 µM, first compound 1 µM) 109%; (second compound 9.49 µM, first compound 3.16 µM) 107%; (second compound 9.49 µM, first compound 10 µM) 104%. Also, the viability, T/C reads like this: (second compound 30 µM, first compound 0.0316 µM) 91%; (second compound 30 µM, first compound 0.1 µM) 98.6%; (second compound 30 µM, first compound 0.316 µM) 100%; (second compound 30 µM, first compound 1 µM) 97.2%; (second compound 30 µM, first compound 3.16 µM) 104%; (second compound 30 µM, first compound 10 µM) 91.1%.

Take `CC(C)n1nc(-c2ccc3oc(N)nc3c2)c2c(N)ncnc21`: the viability, T/C runs as follows: (compound 0.000316 µM) 115% and 102%; (compound 0.001 µM) 103%; (compound 0.00316 µM) 93.7% and 84.9%; (compound 0.01 µM) 75.8% and 92.2%; (compound 0.0316 µM) 83.8% and 77.3%; (compound 0.1 µM) 82.8% and 76.9%. Further, the half-inhibitory concentration (IC50) (curve of compound) was more than 0.1 µM.
